One molecule from patent publication US8952003B2, “Sterol derivative” (Kyowa Hakko Kirin Co., Ltd, priority 2009, dated 2015) can be followed below.

The assay concerns Rat adult neural stem cell line ANSC-7 cells. The experiment in a line: Proliferation promoting activity on neural stem cells (Test Example 1). The class given is cell-based. The note with it: at 1.0 nmol/L, relative value, negative control (DMSO) = 100%, wells without cells = 0%, absorbance at 490 nm. The procedure:
Rat adult neural stem cell line ANSC-7 cells prepared by the method described in the following Reference Test Example 1 were suspended in assay medium at a density of 1.6×10^5 cells/mL; inoculated at 0.1 mL in a 96 well plate (manufactured by Costar) of which surface was coated with polyornithine and laminin; and cultured overnight at 37° C. under an atmosphere of 5% CO2. Thereafter, 50 μL of the culture supernatant was removed, and 50 μL of a test compound which was serially diluted with the assay medium to 2 times of the final concentration or DMSO (negative control) was added to each well. For the serial dilution of a test compound, non-specific adsorption was minimized by using ProteoSave 96 U plates (manufactured by SUMILON), siliconized 1.5 mL tubes (manufactured by Assist) and Pitarack siliconized tips (manufactured by Nacalai). After the culturing for 48 hours, 50 μL of the culture supernatant was replaced by 50 μL of the assay medium containing 0.1% bovine fetal serum. Furthermore, after the culturing for 48 hours, Living Cell Count Reagent SF (manufactured by Nacalai Tesque) was added at the volume of 10 μL per well to the medium. After the culturing for 3 hours at 37° C. in the incubator which was set at 5% CO2, the resulting solution was stirred for one minute and then the absorbance at 490 nm (control wavelength 655 nm) was measured by using Microplate Spectrophotometer Emax (manufactured by Molecular Devices). By regarding the measured value of well to which the cells were not inoculated as 0%, and the measured value of negative control as 100%, relative values in the test compound addition group were calculated.
After putting a 7-week-old Sprague Dawley Rat to sleep by ether anesthesia and subsequent decapitation, the skull was cut open from the parietal region to extract the brain. Under a microscope, tissues including circumventricular region were isolated from the extracted brain by using ophthalmic scissors and tweezers. The tissues including circumventricular region were cut into fragments of about 1 mm^3 using ophthalmic scissors and scalpels and then subjected to 30 minutes of digestion reaction at 37° C. in 5 mL of Hanks' buffer (HBSS buffer, manufactured by Invitrogen) containing 2.5 U/mL of papain, 250 U/mL of DNase (all manufactured by Worthington, Freehold, N.J.) and 1 U/mL of a neutral protease (Dispase, manufactured by Boehringer-Mannheim Corp.). The mixture of cells and tissues obtained by the reaction was washed three times with DMEM (manufactured by Invitrogen) containing 10% fetal bovine serum (manufactured by Hyclone) and then dissolved in the DMEM containing 10% fetal bovine serum, followed by removing the undigested materials using a nylon mesh of […].
The resulting crude cells extract was cultured overnight on a culture dish of 10 cm, in an incubator of 37° C. using DMEM/F12 medium (manufactured by Invitrogen) containing 10% fetal bovine serum. On the next day, the medium was replaced with DMEM/F12 containing 1% of N-2 additives (manufactured by Invitrogen) and 20 ng/mL of FGF 2 (manufactured by Pepro Tech) and the culturing was started. Once in 3 days, half of the medium was replaced with new DMEM/F12 containing 1% of N-2 additives and 20 ng/mL of FGF 2 and the culturing was continued.
When a small colony consisting of small cells was formed, it was treated with 1% trypsin for 30 seconds to 1 minute, and the cells detached were harvested. The harvested cells were inoculated on a multiple well culture dish (manufactured by Fisher Scientific) which had been coated at room temperature overnight using 10 μg/mL of polyornithine (manufactured by Sigma) and at 37° C. overnight using 5 μg/mL of mouse EHS tumor-derived laminin (Becton Dickinson), and the culturing was continued.
By continuing the above-mentioned culturing, small cells having small protrusion and thickness were concentrated. The cells were used as adult neural stem cells in the above-mentioned test (Test Example 1).

For `CC(C)CCC[C@@H](C)[C@H]1CCC2=C3OC(=O)[C@H]4C[C@@H](O)CC[C@]4(C)[C@H]3CC[C@@]21C` [Compound 99, (1R,5aS,7S,9aR,9bR,11aR)-7-Hydroxy-9a,11a-dimethyl-1-[(R)-6-methylheptan-2-yl]-2,3,3,5a,6,7,8,9,9a,9b,10,11,11a-dodecahydrobenzo[c]cyclopenta[h]chromen-5(1H)-one], the activity at 0.001 µM is not below 125%.
